Data published in patent publication US9347934B2, “Assays for identifying compounds that modulate bitter taste” (CHROMOCELL CORPORATION, priority 2011, dated 2016).

How the values were obtained:
Assay type in all cases: cell-based
TAS2R1 = molecular target: T1, TAS2R1 (Homo sapiens, UniProt Q9NYW7); assay: Calcium fluorescence functional assay, TAS2R1 cell line; details: 20 mM tastant; cell line expressing human TAS2R1 and mouse Gα15
T1 construct: expressed in transfected cells
T1 sequence (Q9NYW7 1-299): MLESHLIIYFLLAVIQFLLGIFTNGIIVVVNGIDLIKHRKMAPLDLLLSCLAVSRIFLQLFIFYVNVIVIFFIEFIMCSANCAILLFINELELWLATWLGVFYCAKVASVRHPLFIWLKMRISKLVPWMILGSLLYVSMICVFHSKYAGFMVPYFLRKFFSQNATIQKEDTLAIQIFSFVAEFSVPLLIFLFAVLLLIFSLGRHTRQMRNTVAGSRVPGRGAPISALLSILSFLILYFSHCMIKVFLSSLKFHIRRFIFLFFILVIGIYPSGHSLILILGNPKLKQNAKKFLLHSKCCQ
Description: (§1) Accordingly, each cell line of the panel expressed a human bitter taste receptor and mouse Gα15 signaling protein.
(§2) Probenecid was not included in the load solution.
(§3) After dye loading, cell plates were placed in a fluorescent plate reader (e.g., FDSS6000 (Hamamatsu, Japan)) and receptor stimulation was measured by adding 50 ul of 3× concentrated ligand/agonist stock. Fluorescence was monitored continuously for 10 s before agonist addition and for 100-250 s after stimulation with agonist.
(§4) Receptor Activation is defined as follows: % Activation=[((Maximum signal fluorescence−Minimum signal fluorescence)−(Maximum control fluorescence−Minimum control fluorescence))/(Maximum buffer fluorescence−Minimum buffer fluorescence)]*100 Functional Response=[(Maximum signal fluorescence−Minimum signal fluorescence)−(Maximum control fluorescence−Minimum control fluorescence)] • Signal Fluorescence: refers to the change in fluorescence seen with addition of ligand • Control fluorescence: refers to the change in fluorescence seen with addition of buffer (negative control) • Calcium signals from ligand and control were normalized to the basal fluorescence of the cells prior to the stimulation.
(§5) A concentration analysis was performed and EC50 values were calculated by nonlinear regression using the formula: Y=Bottom+(Top-Bottom)/(1+10^((Log EC50-X)*Hill Slope)), X=log of dose or concentration, Y=Response (increasing as X increases), Top=maximum signal, Bottom=minimum signal.

TAS2R13 = molecular target: T2, TAS2R13 (Homo sapiens, UniProt Q9NYV9); assay: Calcium fluorescence functional assay, TAS2R13 cell line; details: for TAS2R13 bitter taste receptor activity (changes in intracellular calcium): 20 mM tastant, cell line expressing human TAS2R13 and mouse Gα15
T2 construct: expressed in transfected cells
T2 sequence (Q9NYV9 1-303): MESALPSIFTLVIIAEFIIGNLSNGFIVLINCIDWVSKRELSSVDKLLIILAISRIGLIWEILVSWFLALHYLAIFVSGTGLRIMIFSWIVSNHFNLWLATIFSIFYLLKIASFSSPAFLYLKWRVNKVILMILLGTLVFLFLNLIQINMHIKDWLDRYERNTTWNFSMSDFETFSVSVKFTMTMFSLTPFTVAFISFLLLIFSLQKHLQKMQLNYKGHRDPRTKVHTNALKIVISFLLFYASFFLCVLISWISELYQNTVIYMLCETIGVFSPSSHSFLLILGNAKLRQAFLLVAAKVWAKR
Description: as §1, §2, §3, §4, §5

TAS2R14 = molecular target: T3, TAS2R14 (Homo sapiens, UniProt Q9NYV8); assay: Calcium fluorescence functional assay, TAS2R14 cell line; details: for TAS2R14 bitter taste receptor activity (changes in intracellular calcium): 20 mM tastant, cell line expressing human TAS2R14 and mouse Gα15
T3 construct: expressed in transfected cells
T3 sequence (Q9NYV8 1-317): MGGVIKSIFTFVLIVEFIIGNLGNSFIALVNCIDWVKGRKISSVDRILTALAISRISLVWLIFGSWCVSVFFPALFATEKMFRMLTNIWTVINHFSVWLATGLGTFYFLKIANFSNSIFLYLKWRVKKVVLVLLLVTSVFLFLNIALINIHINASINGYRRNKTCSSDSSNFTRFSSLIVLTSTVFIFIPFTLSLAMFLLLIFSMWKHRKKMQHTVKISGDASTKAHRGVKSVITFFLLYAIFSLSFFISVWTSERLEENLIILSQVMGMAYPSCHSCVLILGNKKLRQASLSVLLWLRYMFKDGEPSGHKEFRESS
Description: as §1, §2, §3, §4, §5

TAS2R43 = molecular target: T4, TAS2R43 (Homo sapiens, UniProt P59537); assay: Calcium fluorescence functional assay, TAS2R43 cell line; details: 20 mM tastant; cell line expressing human TAS2R43 and mouse Gα15
T4 construct: expressed in transfected cells
T4 sequence (P59537 1-309): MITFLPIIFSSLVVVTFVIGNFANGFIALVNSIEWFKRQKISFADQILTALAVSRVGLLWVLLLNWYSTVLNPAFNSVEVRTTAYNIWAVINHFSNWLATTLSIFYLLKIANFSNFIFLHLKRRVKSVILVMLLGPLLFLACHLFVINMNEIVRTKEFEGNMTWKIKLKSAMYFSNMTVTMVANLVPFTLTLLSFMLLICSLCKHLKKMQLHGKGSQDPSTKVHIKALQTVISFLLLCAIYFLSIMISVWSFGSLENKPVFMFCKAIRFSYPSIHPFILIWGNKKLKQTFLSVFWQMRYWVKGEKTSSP
Description: as §1, §2, §3, §4, §5

TAS2R44 = molecular target: T5, TAS2R44 (Homo sapiens, UniProt P59538); assay: Calcium fluorescence functional assay, TAS2R44 cell line; details: for TAS2R44 bitter taste receptor activity (changes in intracellular calcium): 20 mM tastant, cell line expressing human TAS2R44 and mouse Gα15
T5 construct: expressed in transfected cells
T5 sequence (P59538 1-309): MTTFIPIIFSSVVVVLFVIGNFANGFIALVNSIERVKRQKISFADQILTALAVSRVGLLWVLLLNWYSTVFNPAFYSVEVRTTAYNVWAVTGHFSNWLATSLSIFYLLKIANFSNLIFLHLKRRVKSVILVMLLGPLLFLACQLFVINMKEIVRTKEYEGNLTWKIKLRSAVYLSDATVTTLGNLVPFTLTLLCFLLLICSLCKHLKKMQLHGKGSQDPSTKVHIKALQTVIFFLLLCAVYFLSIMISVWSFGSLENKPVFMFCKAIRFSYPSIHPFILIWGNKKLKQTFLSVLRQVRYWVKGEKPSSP
Description: as §1, §2, §3, §4, §5

TAS2R45 = molecular target: T6, TAS2R45 (Homo sapiens, UniProt P59539); assay: Calcium fluorescence functional assay, TAS2R45 cell line; details: 20 mM tastant; cell line expressing human TAS2R45 and mouse Gα15
T6 construct: expressed in transfected cells
T6 sequence (P59539 1-299): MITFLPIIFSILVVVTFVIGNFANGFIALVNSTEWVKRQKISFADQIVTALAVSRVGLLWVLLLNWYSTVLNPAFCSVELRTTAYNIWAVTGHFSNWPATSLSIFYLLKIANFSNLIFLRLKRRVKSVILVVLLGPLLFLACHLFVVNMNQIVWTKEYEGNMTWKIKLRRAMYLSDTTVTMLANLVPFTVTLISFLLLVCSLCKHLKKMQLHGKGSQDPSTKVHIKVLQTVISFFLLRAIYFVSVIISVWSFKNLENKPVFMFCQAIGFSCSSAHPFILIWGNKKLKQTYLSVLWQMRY
Description: as §1, §2, §3, §4, §5

Compound: CC1=CC(=O)NS(=O)(=O)O1 [Acesulfame K]
- TAS2R1 bitter taste receptor activity (changes in intracellular calcium) (TAS2R1): induced
- TAS2R13 bitter taste receptor activity (changes in intracellular calcium) (TAS2R13): induced
- TAS2R14 bitter taste receptor activity (changes in intracellular calcium) (TAS2R14): induced
- TAS2R43 bitter taste receptor activity (changes in intracellular calcium) (TAS2R43): did not induce
- TAS2R44 bitter taste receptor activity (changes in intracellular calcium) (TAS2R44): induced
- TAS2R45 bitter taste receptor activity (changes in intracellular calcium) (TAS2R45): did not induce

Compound: [Cl-].[K+] [KCl, potassium chloride]
- TAS2R1 bitter taste receptor activity (changes in intracellular calcium) (TAS2R1): did not induce
- TAS2R13 bitter taste receptor activity (changes in intracellular calcium) (TAS2R13): induced
- EC50 (TAS2R13; increasing concentrations of KCl, TAS2R13 cell line (FIG. 3), read-out: EC50 value, activation of TAS2R13): 5 to 15 mM
- TAS2R14 bitter taste receptor activity (changes in intracellular calcium) (TAS2R14): induced
- EC50 (TAS2R14; increasing concentrations of KCl, TAS2R14 cell line (FIG. 3), read-out: EC50 value, activation of TAS2R14): 5 to 15 mM
- TAS2R43 bitter taste receptor activity (changes in intracellular calcium) (TAS2R43): did not induce
- TAS2R44 bitter taste receptor activity (changes in intracellular calcium) (TAS2R44): induced
- EC50 (TAS2R44; increasing concentrations of KCl, TAS2R44 cell line (FIG. 3), read-out: EC50 value, activation of TAS2R44): 5 to 15 mM
- TAS2R45 bitter taste receptor activity (changes in intracellular calcium) (TAS2R45): did not induce

Compound: CC(O)C(=O)[O-].[K+] (stereo not drawn) [Potassium lactate, potassium lactate]
- TAS2R1 bitter taste receptor activity (changes in intracellular calcium) (TAS2R1): did not induce
- TAS2R13 bitter taste receptor activity (changes in intracellular calcium) (TAS2R13): induced
- TAS2R14 bitter taste receptor activity (changes in intracellular calcium) (TAS2R14): induced
- TAS2R43 bitter taste receptor activity (changes in intracellular calcium) (TAS2R43): did not induce
- TAS2R44 bitter taste receptor activity (changes in intracellular calcium) (TAS2R44): induced
- TAS2R45 bitter taste receptor activity (changes in intracellular calcium) (TAS2R45): did not induce
